Source: US20170202838A1, “IMMUNOMODULATOR” (TAIHO PHARMACEUTICAL CO., LTD., priority 2015, published 2017)

Key:
MC38 [1] = test: Immune-system-associated gene expression in tumors via real-time PCR (Example 11); format: in vivo, mouse; conditions: final day of administration, relative to control
Experimental: (§1) A cell suspension of the mouse colon cancer cell line MC38 was prepared with the use of PBS(-) and 50% Matrigel, and the cell suspension was injected subcutaneously into mice at 1×10^6 cells/mouse. The mice were divided into groups when the average subcutaneous tumor volume reached approximately 50 mm^3, Compound (I) (50 mg/kg) or the anti-PD-1 antibody (50 μg/mouse) was administered thereto alone or Compound (I) (50 mg/kg) was administered in combination with the anti-PD-1 antibody (50 μg/mouse), and the tumor volume was measured with the elapse of time. The tumor volume was determined on the basis of the longer diameter and the shorter diameter of the tumor measured percutaneously in accordance with Equation A shown below.
FIGS. 14 to 16 show changes in the immune-system-associated gene expression levels in tumors of the groups on the final day of administration of Compound (I). The tumor samples were obtained from the groups on the final day of administration of Compound (I) to prepare cDNA samples. The prepared cDNA samples were subjected to gene expression analysis via real-time PCR with the use of various immune-system-associated gene probes, and the results thereof were plotted. β-Actin was used as a control. Each plot indicates a gene expression level relative to a value of one of the controls. In the group to which Compound (I) had been administered, CD3, CD4, CD8, NK1.1, IL-2, IFN-γ, Perforin, Granzyme B, and CD69 gene expression levels increased, compared with those in the group to which Compound (I) had not been administered.

[2] = test system: human peripheral blood mononuclear cells; test: Induction of cytokine production in human peripheral blood mononuclear cells, Bio-Plex Pro cytokine assay (Example 7); format: cell-based; conditions: 2 days culture, no stimulant (FIG. 9)
Experimental: Human peripheral blood mononuclear cells were introduced into a human complete medium (i.e., RPMI-1640 supplemented with 10% heat-inactivated FBS, 100 U/ml penicillin, and 100 μg/ml streptomycin) to prepare a cell suspension (1×10^5 cells/ml). Compound (I), the EGFR tyrosine kinase inhibitor (i.e., AZD9291 or Erlotinib), or a cytokine-inducing positive control (i.e., Imiquimod) was added to the cell suspension. A control group to which the EGFR tyrosine kinase inhibitor and others were not added was also prepared (i.e., the non-treatment group). The culture solution was cultured in an incubator at 37° C. in the presence of 5% CO2 for 2 days. The culture supernatant was recovered, and various types of cytokines were inspected with the use of the Bio-Plex Pro human cytokine assay kit.

B16F10 = test: In vitro growth of mouse melanoma cell line B16F10, CellTiter-Glo2.0 (Reference Example 1); format: cell-based; conditions: B16F10, 3 days culture
Experimental: (§2) The mouse melanoma cell lines B16F10 and K1735M2 and the mouse colon cancer cell line MC38 were seeded in a 96-well plate at 3×10^3 cells/well. Compound (I) or the EGFR tyrosine kinase inhibitor (i.e., Erlotinib, Afatinib, AZD9291, or Co1686 (Rociletinib)) that had been diluted to the given concentration was added 24 hours later. Thereafter, culture was conducted for 3 days, and the number of cells was determined using CellTiter-Glo2.0 (Promega, G9243).

MC38 [3] = test: In vitro growth of mouse colon cancer cell line MC38, CellTiter-Glo2.0 (Reference Example 1); format: cell-based; conditions: MC38, 3 days culture
Experimental: as §2

MC38 [4] = test: Tumor volume of subcutaneous mouse colon cancer cell line, alone or combined with anti-PD-1 antibody, in vivo model (Example 11)
Experimental: as §1
Tumor volume (mm^3)=longer diameter (mm)×shorter diameter (mm)^2/2 (Equation A)

mouse spleen cells = test: Induction of IL-2 production of mouse spleen cells stimulated with anti-CD3 antibody and anti-CD28 antibody (Example 1); format: cell-based
Experimental: The mouse spleen was extracted, grinded with glass slides with frosted areas, and then subjected to hemolysis, so as to obtain spleen cells. The resulting spleen cells were introduced into a complete medium (i.e., RPMI-1640 supplemented with 10% heat-inactivated FBS, 100 U/ml penicillin, 100 μg/ml streptomycin, and 55 μM 2-mercaptoethanol) to a cell density of 2×10^6 cells/ml, the anti-CD3 antibody and the anti-CD28 antibody were added thereto to the final concentrations of 3 μg/ml and 0.5 μg/ml, respectively, and Compound (I) was further added thereto to each final concentration. The culture solution was seeded in a 96-well plate at 200 μl/well and then cultured in an incubator at 37° C. in the presence of 5% CO2 for 2 days. The culture supernatant was recovered, and the concentration of IL-2 contained therein was measured via ELISA using anti-mIL-2 antibody.
Also, culture was conducted in the same manner with the addition of the anti-CD3 antibody at a variable final concentration, the anti-CD28 antibody at the final concentration of 0.5 μg/ml, and Compound (I) at the final concentration of 0.0 μM or 0.1 μM, and the IL-2 concentration in the culture supernatant was measured.

EG.7-OVA = test: Peripheral blood immunocyte analysis in mouse model subcutaneously implanted with OVA-expressing thymoma cell line (Example 5); format: in vivo; conditions: Compound (I) 50 mg/kg, 14 days after implantation, compared with control group and anti-PD-1 antibody group (FIG. 6)
Experimental: A cell suspension of the OVA-expressing mouse thymoma cell line (EG.7-OVA) was prepared with the use of PBS(-) and 50% Matrigel, and the cell suspension (1×10^4 cells/mouse) was implanted into the syngeneic C57BL/6n mice via subcutaneous injection. The mice were divided into groups based on their body weights 1 day after implantation, and Compound (I) was administered thereto at 50 mg/kg or the anti-PD-1 antibody was administered thereto at 100 μg/mouse. A control group to which neither Compound (I) nor the anti-PD-1 antibody had been administered was also prepared. The peripheral blood was sampled 14 days after implantation and analyzed via flow cytometry with the use of antibodies each reacting with a relevant immunocyte surface marker, so as to determine the relative number of CD4-positive cells, CD8-positive cells, and CD4-negative, CD8-negative, and NK1.1-positive cells. […] In the group to which Compound (I) had been administered, the number of all cells increased, compared with the control group and the group to which the anti-PD-1 antibody had been administered.

In the case of `C=CC(=O)N[C@H]1CCc2c(-c3cnc4ccccc4c3)c3c(N)ncnc3n2C1` [Compound (I), (S)—N-(4-amino-5-(quinolin-3-yl)-6,7,8,9-tetrahydropyrimido[5,4-b]indolizin-8-yl)acrylamide], the “CD3 gene expression level in tumors” value (MC38 [1]; β-Actin control (FIG. 14)) is reported as “increased”, the “CD4 gene expression level in tumors” value (MC38 [1]; β-Actin control (FIG. 14)) is reported as “increased” and the “CD8 gene expression level in tumors” value (MC38 [1]; β-Actin control (FIG. 14)) is reported as “increased”. For the same compound, the “IFN-γ gene expression level in tumors” value (MC38 [1]; β-Actin control (FIG. 15)) was “increased”, the “IL-2 gene expression level in tumors” value (MC38 [1]; β-Actin control (FIG. 15)) was “increased” and the “NK1.1 gene expression level in tumors” value (MC38 [1]; β-Actin control (FIG. 15)) was “increased”. For the same compound, the “CD69 gene expression level in tumors” value (MC38 [1]; β-Actin control (FIG. 16)) was “increased”, the “Granzyme B gene expression level in tumors” value (MC38 [1]; β-Actin control (FIG. 16)) was “increased” and the “Perforin gene expression level in tumors” value (MC38 [1]; β-Actin control (FIG. 16)) was “increased”. For the same compound, the “cytokine concentrations relative to the non-treatment group” value [2] was “induced the production of various types of cytokines”, the “suppression of cell growth (number of cells)” value (B16F10) was “did not suppress the growth of any cells” and the “suppression of cell growth (number of cells)” value (MC38 [3]) was “did not suppress the growth of any cells”. The “extent of tumor growth inhibition (tumor volume)” value (MC38 [4]; Compound (I) 50 mg/kg alone, compared with control group (FIG. 13)) was “greater”, the “potentiation of the activity of the anti-PD-1 antibody (tumor volume)” value (MC38 [4]; Compound (I) 50 mg/kg in combination with anti-PD-1 antibody 50 μg/mouse (FIG. 13)) was “potentiate the immunomodulation activity of the anti-PD-1 antibody” and the “concentration of IL-2 produced by mouse spleen cells in the culture supernatant” value (mouse spleen cells; anti-CD3 antibody 3 μg/ml and anti-CD28 antibody 0.5 μg/ml constant, Compound (I) variable, 2 days, ELISA (FIG. 1)) was “increased as the amount of Compound (I) added increased”. For the same compound, the “concentration of IL-2 produced by mouse spleen cells in the culture supernatant” value (mouse spleen cells; anti-CD3 antibody variable, anti-CD28 antibody 0.5 μg/ml, Compound (I) 0.1 μM vs 0.0 μM (FIG. 2)) was “IL-2 production was induced upon stimulation with the anti-CD3 antibody”, the “relative number of CD4-negative, CD8-negative, and NK1.1-positive cells in peripheral blood” value (EG.7-OVA) was “increased” and the “relative number of CD4-positive cells in peripheral blood” value (EG.7-OVA) was “increased”. For the same compound, the “relative number of CD8-positive cells in peripheral blood” value (EG.7-OVA) was “increased”.
